This note sets out measurements from patent US8802054B2, “Method for characterizing the oxidative stress protective capacity of an antioxidative substance” (PCR Technology Holdings, LC, priority 2005, dated 2014).

The subject of one assay is human skin. Briefly: UVB irradiation of human skin measuring damage by formation of sunburn cells (sunburn cell assay). The class given is in vivo. Particulars: for reduction in SBCs: 0.5% w/w in ethanol/water, topical once a day for two weeks, 1.5 MED UVB; for Sun Burn Cell Assay score: normalized to best performer = 20 points. The source says: Test 1: UVB Irradiation of Human Skin Measuring Damage by Formation of Sunburn Cells (SBC)
Exposure to UV radiation can cause damage of epidermal cells, resulting in the formation of sunburn cells. Since sunburn cells can be counted, their formation provides a relatively sensitive and quantitative measure of the extent of UV radiation damage to the epidermis.
All applications were made to a 5×10 cm area site over the mid-back region once a day for two weeks. Each putative antioxidant was applied to five (n=5) different healthy adult volunteers between the ages of 18 and 60. All Antioxidants were dissolved in ethanol/water at 0.5% w/w concentrations. Additionally, one test site was left untreated and served as a control. Approximately ten minutes after the last application, test sites were irradiated to 1.5 MED (Minimal Erythema Dose) of UVB light, a shave biopsy taken and prepared histologically, and the number of sun burn cells (SBC) evaluated microscopically per High Power Field.
The light source used was a 150 watt xenon arc solar simulator equipped with a UV reflecting dichromic mirror and a 1 mm thick Schott WG-320 (BES Optics Inc., W. Warwick, R.I.) filter to produce simulation of the solar spectrum. A 1 mm thick UG5 filter was added to remove reflected heat and remaining visible radiation.
The MED for each subject was determined by exposing a 1 cm diameter circle to untreated areas to a series of exposures in 25% dose increments from the solar simulator. The MED was defined as the time of exposure required to produce a minimally perceptible erythema 20±4 hours after exposure. Biopsies: Approximately ten minutes after the last topical application of the putative antioxidant, a circular area measuring 1 cm in diameter was exposed to a single dose of 1.5 MED using the solar simulator. Approximately 20 hours later, a shave biopsy (˜4×4 mm) was obtained from each irradiated and untreated control sites. Following injections of a local anesthetic (lidocaine). The skin specimens were immediately fixed in 10% buffered formalin.
The fixed specimens were processed routinely, embedded in paraffin and then sectioned and stained with hematoxylin-eosin. The numbers of sun burn cells (SBC) were determined in at least 12 sections at 50 u intervals. A minimum of 70 high power fields (HPF) was counted from each biopsy and the average number of SBCs per HPF determined. All specimens were counted in a blinded manner.
FIG. 3 expresses the photoprotective benefits of the antioxidants tested based on the percent change over baseline (delta percent) for the number of SBC per HPF.

Assay [1] in a line: Radical scavenging capacity measured by photochemilluminescence (Photochem system). Particulars: for Photochemilluminescence score: 10 nmol/L=20, 100 nmol/L=15, 1000 nmol/L=10, >1000 nmol/L=5; for Effective Concentration (to eliminate radical formation): lowest effective concentration, base 10 serial dilution. The class given is biochemical. The source says: Test 2: Radical Scavenging Capacity Measured by Photochemilluminescence
This test assessed the general antioxidative capacity of substances in their ability to scavenge free radicals via the measurement of radicals generated (or lack thereof) through their reaction with luminol and subsequent light emission.
The individual antioxidant capacity of the putative antioxidant substances was estimated by the Photochem® system (Analytik Jena AG, Jena, Germany, and Analytik Jena USA, Inc., Texas). The system combines the generation of radicals through photochemical excitation with highly sensitive luminometric detection via the radical reaction with luminol to produce measurable light emission. Samples are diluted with pre-made buffers (standardized kits) and applied to the device. The relative antioxidative capacity is determined by comparison to a standardized blank (without antioxidants) and a standard provided with the kit. The ACL-kit (Integral Antioxidative Capacity of lipid-soluble substances) and the ACW-kit ((Integral Antioxidative Capacity of water-soluble substances) were used.
Antioxidant concentrations effective to eliminate radical formulation were established for each antioxidant.

Assay [2] can be described thus: LDL pro-oxidative system (CuSO4) measuring primary oxidation by-products (lipid hydroperoxides). Type of assay: biochemical. Particulars: 100 μmol antioxidant; normalized to best performer = 20 points. The source says: Test 3: LDL Pro-Oxidative Systems Measuring Primary & By-Products
This test assessed the ability of the antioxidant to protect LDL stressed with Copper Sulfate (Cu—SO4) oxidative system. The CuSO4-LDL system was used to evaluate the protection of lipid bulks over time measuring the primary by-products of lipid peroxidation—the highly reactive and cytotoxic lipid hydroperoxides.
After isolation, LDLs were extensively dialyzed against a degassed and nitrogen-saturated Tris-Hydrochloric (HCl) buffer (5 mmol/L, pH7.4) containing 1 mmol/L EDTA. Before oxidation by CuSO4, EDTA was removed from LDL by dialysis against a Tris-HCl buffer (5 mmol/L, pH7.4) without added EDTA.
Lipid hydroperoxides were determined with the Cayman Lipid Peroxidation (LPO) Assay Kit (Cayman Chemical, Ann Arbor, Mich.) which measures the hydroperoxides directly utilizing the redox reactions with ferrous ions to produce ferric ions which can be detected using thiocyanate ion as the chromogen.

The nature of assay [3]: Microsome pro-oxidative system (NADPH/ADP/Fe3+) measuring secondary oxidation by-products (MDA equivalents, TBARS). Type of assay: biochemical, male Wistar rats. Particulars: 100 μmol antioxidant; normalized to best performer = 20 points.
Description: Test 4: Microsome Pro-Oxidative System measuring Secondary Oxidation By-Products
In this test, an assessment of antioxidative ability to protect microsomal membrane stressed with NADPH/ADP/Fe^3+-oxidative system measuring secondary oxidative by-products (Malondialdehyde-MDA equivalents) was performed utilizing the Thiobarbituric Acid Reactive Substances (TBARS) method. […] Therefore the pro-oxidative NADPH/ADP/Fe^3+-microsome system was used as an in vitro model system more closely resembling natural cellular biological systems.
Livers were obtained from male Wistar rats weighing between 250 and 400 g. Tissue was homogenized in 50 mmol/L N-2-Hydroxyethylpiperazine-N-2-Ethanesulfonic Acid (HEPES), 250 mmol/L sucrose buffer, pH 7.4, containing 150 mmol/L Potassium Chloride (KCl) and 500 μmol/L EDTA using a kinematica polytron PT3000 (Brinkmann Instruments, Westbury, N.Y.) homogenizer. Microsomal vesicles were isolated by removal of the nuclear fraction at 8,000×g for 10 min at 4° C. and removal of the mitochondrial fraction at 18,000×g for 10 min at 4° C. using a Beckman L8-55 ultracentrifuge and a 50Ti-13 rotor. The microsomal fraction was sedimented at 105,000×g for 60 min at 4° C. The pellet was washed once in 50 mmol/L HEPES and 150 mmol/L KCl, pH7.4, and collected again at 105,000×g for 30 min. The resulting microsomal pellet was resuspended in HEPES/KCl, pH7.4, by careful sonication in ice and stored in portions (10 mg protein/ml) at −80° C. until use.
The microsomal preparations were incubated in the presence of the pro-oxidant system NADPH/ADP/Fe^3+, consisting of 0.20 mmol/L NADPH, 50 mmol/L ADP, and 0.25 mmol/L FeCl3 in HEPES/KCl buffer (150 mmol/L KCl, 50 mmol/L HEPES) with and without the putative antioxidant substances. Oxidation of 1-ml aliquots containing 1 mg of protein was started at 37° C. by the addition of NADPH and was stopped with EDTA (10 mmol/L) after the times indicated in the figure legends. Control incubations without the pro-oxidant system were performed at 37° C. in the presence of EDTA. All Antioxidants were dissolved in water or ethanol and added to the incubations at equivalent 100 μmol concentrations.
Microsomal preparations (500 μl) were mixed with 1 ml of thiobarbituric acid (0.67 g/100 ml, 0.05 mol/L Sodium Hydroxide-NaOH). After the addition of trichloroacetic acid (50% w/v), the samples were heated to 90° C. for 30 min. After cooling and extraction of the samples with 1 ml of butanol, the absorbance of the butanol phase was determined spectrophotometrically at 532 nm. For quantification, an external standard curve was prepared using 1,1,3,3-tetraethoxypropane, which yields MDA.
Assay [4] relates to Human primary foreskin keratinocytes. Briefly: UVB irradiation of keratinocytes measuring DNA damage (nuclear thymine dimer staining). Details: Inhibition of photoproduct generation (protective effect): concentration or dose not given beside the values. Type of assay: cell-based. Particulars: for Positive cells after UVB radiation (anti-thymine dimer antibody positive cells) / Inhibition of photoproduct generation (protective effect): 200 mJ/cm2 UVB; for Positive cells after UVB radiation (anti-thymine dimer antibody positive cells): positive cells above threshold in three fields, irradiated control 53%; for Inhibition of photoproduct generation (protective effect): relative to irradiated control; for UVB Irradiated Keratinocytes score: normalized to best performer = 20 points. The source says: Test 5: UVB Irradiation of Keratinocytes Measuring DNA Damage
This test assessed DNA damage in cell culture experiments under pro-oxidative conditions (UVB irradiation of human keratinocytes) by measuring the positive cells for anti-thymine dimer antibodies. This experiment is thought to reflect a direct correlation to the in vivo occurring DNA cross linking damage following UVB exposure and the protection of such nuclear damage by antioxidants.
Human primary foreskin keratinocytes (second passage) were grown in 6-well plates containing cover slips to 60% confluence in serum free medium (KGM, Clonetics) containing 0.07 mM CaCl2. Six hours before UVB-radiation medium was removed and replaced by fresh growth medium with or without the antioxidative substances.
Keratinocyte cultures were irradiated with a single dose of 200 mJ/cm2 UVB, using FS-20/T-12 bulbs (emission range: 280-340 nm; 305 nm max.). Immediately prior to irradiation, the medium was replaced with 1 ml sterile PBS (pH 7.4, 37° C.), and after irradiation, PBS was replaced with fresh growth medium. UVB exposure was quantitated using a Goldilux Ultraviolet radiometer. Cells were maintained at 37° C. (5% CO2) for 1 hour until fixation with paraformaldehyde (PFA).
Cells were fixed with 4% PFA in PBS for 30 min at RT, washed with PBS and permeabilized by incubation with EtOH/PBS (90/10; v %/v %) for 30 min at ˜10° C. After fixation and permeabilization cells were washed twice with PBS containing 1% of bovine serum albumin (BSA). They were then incubated for 30 min with 10 μg/ml anti-thymine Dimer Ab (clone KTM53; Kamiya) at RT. After the incubation period cells were washed twice with PBS-BSA and incubated for 30 min with 20 μg/ml secondary FITC-conjugated anti-mouse IgG at RT. After the incubation with the secondary antibody, cells were washed twice with PBS-BSA and fixed again with 4% PFA for 15 min at RT. Slides were analyzed by confocal microscopy.
This experiment is thought to reflect the in-vivo occurring DNA damage following UVB exposure and the protection of such nuclear damage by antioxidants.

A short description of assay [5]: Global relative antioxidant activity: total oxidative stress protective capacity score (sum of five tests). Particulars: sum of five equally weighted tests, maximum 100. The source says:
Each oxidant was scored in each test, the results were then totaled for each antioxidant for each of the tests on an equal weighted basis. The total score of a particular antioxidant is reflective of the overall oxidative stress protective capacity of the antioxidant.
The five tests, which were equally weighted at 20 points each, allowed for the maximum highest possible score of 100 points. Using this scale, the higher score indicates higher oxidative stress protective capacity of the antioxidant. Equal weight was given to an antioxidant's performance in each study because each study tested the antioxidant's ability to protect against a unique different set of oxidative stress parameters.
A total oxidative stress protective capacity score for each antioxidant was determined by adding the results of the five tests for each antioxidant. Each of the five tests was assigned equal weight. That is, each antioxidant could receive a maximum of 20 points in each test so that each test contributed equally to the total score for each antioxidant.

Consider `Cc1c(C)c2c(c(C)c1O)CCC(C)(CCCC(C)CCCC(C)CCCC(C)C)O2` (racemic) [Tocopherol, dl-alpha tocopherol], for which, in the assay with human skin, the “reduction in SBCs” value is recorded as 31% and the “Sun Burn Cell Assay score” value worked out at 16 points. Besides, the “relative activity (efficacy) to the standard idebenone in sun burn cell assay” value in the assay with human skin (percentage reduction divided by that of idebenone) came to 82%. Moreover, in assay [1], the Photochemilluminescence score is listed as 20 points and the “Effective Concentration (to eliminate radical formation)” value (“Effective Concentration” for short) is reported as 10 nmol/L. For the same compound, the “Primary Oxidative Products score” value in assay [2] turned out to be 10 points. Moreover, the “Secondary Oxidative Products score” value in assay [3] amounted to 17 points. For the same compound, in assay [4], the “Positive cells after UVB radiation (anti-thymine dimer antibody positive cells)” value (“Positive cells after UVB radiation” below) is 35%, the “Inhibition of photoproduct generation (protective effect)” value (from here on “Inhibition of photoproduct generation”) is 34% and the “UVB Irradiated Keratinocytes score” value amounted to 17 points. Also, the “Total Points (Total Score)” value in assay [5] came to 80 points.
`O=C(O)CCCCC1CCSS1` (racemic) [lipoic acid, dl-alpha lipoic acid]: the “Sun Burn Cell Assay score” value in the assay with human skin is reported as 5 points. In assay [1], the Photochemilluminescence score is 5 points and the “Effective Concentration” value is recorded as >1000 (not detectable) nmol/L. Further, the “Primary Oxidative Products score” value in assay [2] came to 4 points. For the same compound, the “Secondary Oxidative Products score” value in assay [3] was 20 points. In assay [4], the “Positive cells after UVB radiation” value came out at 53%, the “Inhibition of photoproduct generation” value is given as 0% and the “UVB Irradiated Keratinocytes score” value is 7 points. Further, the “Total Points (Total Score)” value in assay [5] turned out to be 41 points.
Regarding `O=C1O[C@H]([C@@H](O)CO)C(O)=C1O` [Ascorbic acid, 1-ascorbic acid], the “Sun Burn Cell Assay score” value with human skin is given as 0 points. In addition, in assay [4], the “Positive cells after UVB radiation” value worked out at 34%, the “Inhibition of photoproduct generation” value worked out at 36% and the “UVB Irradiated Keratinocytes score” value is reported as 17 points.
For `COC1=C(OC)C(=O)C(CCCCCCCCCCO)=C(C)C1=O` [Idebenone, 6-(10-hydroxydecyl)-2,3-dimethoxy-5-methyl-1,4-benzoquinone], in the assay with human skin, the “reduction in SBCs” value was determined as 38% and the “Sun Burn Cell Assay score” value was 20 points. In assay [1], the Photochemilluminescence score came to 20 points and the “Effective Concentration” value is on record as 10 nmol/L. Further, in assay [2], the “Primary Oxidative Products score” value came out at 16 points. For the same compound, the “Secondary Oxidative Products score” value in assay [3] is given as 19 points. Besides, in assay [4], the “Positive cells after UVB radiation” value is recorded as 29%, the “Inhibition of photoproduct generation” value is reported as 45% and the “UVB Irradiated Keratinocytes score” value is reported as 20 points. Besides, in assay [5], the “Total Points (Total Score)” value was found to be 95 points.
As to `c1coc(CNc2ncnc3[nH]cnc23)c1` [Kinetin, kinetin], the “Sun Burn Cell Assay score” value in the assay with human skin is 11 points. Further, in assay [4], the “Positive cells after UVB radiation” value turned out to be 34%, the “Inhibition of photoproduct generation” value was found to be 36% and the “UVB Irradiated Keratinocytes score” value is 17 points.
Take `COC1=C(OC)C(=O)C(C/C=C(\C)CC/C=C(\C)CC/C=C(\C)CC/C=C(\C)CC/C=C(\C)CC/C=C(\C)CC/C=C(\C)CC/C=C(\C)CC/C=C(\C)CCC=C(C)C)=C(C)C1=O` [Ubiquinone, ubiquinone]: the “Sun Burn Cell Assay score” value with human skin was 6 points. In addition, in assay [1], the Photochemilluminescence score was determined as 15 points and the “Effective Concentration” value came to 100 nmol/L. In addition, the “Primary Oxidative Products score” value in assay [2] is listed as 5 points. Besides, in assay [3], the “Secondary Oxidative Products score” value is on record as 12 points. In addition, in assay [4], the “Positive cells after UVB radiation” value is on record as 51%, the “Inhibition of photoproduct generation” value came to 4% and the “UVB Irradiated Keratinocytes score” value came out at 17 points. Also, the “Total Points (Total Score)” value in assay [5] turned out to be 55 points.
